Measurements: ChEMBL document CHEMBL3864171, “Pyridyl Isonicotinamide Inhibitors of RAF Kinase” (ACS Med Chem Lett, 2016)
pIC50: −log10 of the molar value.

Target: RAF proto-oncogene serine/threonine-protein kinase (Homo sapiens, UniProt P04049)
Assay: Inhibition of 1 to 324 residues truncated c-Raf (unknown origin) expressed in baculovirus infected Sf9 insect cells using full length biotinylated MEK1 ATP binding site K97R mutant as substrate preincubated for 60 mins followed by ATP addition measured after 1 hr by alpha screen assay

RAF proto-oncogene serine/threonine-protein kinase, sequence (P04049 whole entry, the tested form may be a part): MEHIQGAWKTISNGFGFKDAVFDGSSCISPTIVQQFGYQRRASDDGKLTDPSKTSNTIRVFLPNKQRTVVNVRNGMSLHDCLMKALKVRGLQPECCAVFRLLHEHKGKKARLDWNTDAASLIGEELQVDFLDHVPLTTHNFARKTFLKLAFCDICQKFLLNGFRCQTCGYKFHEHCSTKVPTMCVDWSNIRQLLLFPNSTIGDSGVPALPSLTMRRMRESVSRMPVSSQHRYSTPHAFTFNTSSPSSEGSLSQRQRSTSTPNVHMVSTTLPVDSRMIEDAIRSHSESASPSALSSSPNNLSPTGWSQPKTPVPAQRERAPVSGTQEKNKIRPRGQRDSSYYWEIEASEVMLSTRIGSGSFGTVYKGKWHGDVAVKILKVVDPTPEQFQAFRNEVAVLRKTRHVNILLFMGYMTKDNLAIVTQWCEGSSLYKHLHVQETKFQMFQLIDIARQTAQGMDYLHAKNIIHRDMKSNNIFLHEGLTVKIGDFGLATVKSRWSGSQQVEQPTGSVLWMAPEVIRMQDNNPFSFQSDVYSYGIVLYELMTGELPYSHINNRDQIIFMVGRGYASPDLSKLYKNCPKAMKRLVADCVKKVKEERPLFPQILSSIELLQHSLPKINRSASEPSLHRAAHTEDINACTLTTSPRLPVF

Row | SMILES | pIC50
1 | Cc1ccc(NC(=O)c2ccnc(C(F)(F)F)c2)cc1-c1cc(OCCOP(=O)(O)O)nc(N2CCOC[C@H]2C)c1 | 8.70
2 | Cc1ccc(NC(=O)c2ccnc(C(C)(F)F)c2)cc1-c1cc(OCCOP(=O)(O)O)nc(N2CCOC[C@H]2C)c1 | 10.00
3 | Cc1ccc(NC(=O)c2cccc(C(F)(F)F)c2)cc1-c1cc(OCCOP(=O)(O)O)nc(N2CCOC[C@H]2C)c1 | 8.22
4 | Cc1ccc(NC(=O)c2ccnc(C(F)(F)F)c2)cc1-c1cc(OCCOP(=O)(O)O)nc(N2CCOCC2)c1 | 10.00
5 | Cc1ccc(NC(=O)c2cc(C(F)(F)F)ccn2)cc1-c1cc(OCC(O)CP(=O)(O)O)nc(N2CCOCC2)c1 (stereo unspecified) | 10.62
6 | Cc1ccc(NC(=O)c2ccnc(C(F)(F)F)c2)cc1-c1cnc(OCCOP(=O)(O)O)c(N2CCOCC2)c1 | 10.52
